This note sets out measurements from patent publication US7803795B2, “Phthalazine derivatives as parp inhibitors” (Janssen Pharmaceutica N.V., priority 2004, dated 2010).

One may read the melting point as the temperature of the solid-liquid transition.

One data set deals with T1, TANK-2 enzyme (Homo sapiens, UniProt Q9H2K2).
T1 construct: His tag (inferred from capture on a Ni-coated plate); made in house
T1 sequence (Q9H2K2 1-1166): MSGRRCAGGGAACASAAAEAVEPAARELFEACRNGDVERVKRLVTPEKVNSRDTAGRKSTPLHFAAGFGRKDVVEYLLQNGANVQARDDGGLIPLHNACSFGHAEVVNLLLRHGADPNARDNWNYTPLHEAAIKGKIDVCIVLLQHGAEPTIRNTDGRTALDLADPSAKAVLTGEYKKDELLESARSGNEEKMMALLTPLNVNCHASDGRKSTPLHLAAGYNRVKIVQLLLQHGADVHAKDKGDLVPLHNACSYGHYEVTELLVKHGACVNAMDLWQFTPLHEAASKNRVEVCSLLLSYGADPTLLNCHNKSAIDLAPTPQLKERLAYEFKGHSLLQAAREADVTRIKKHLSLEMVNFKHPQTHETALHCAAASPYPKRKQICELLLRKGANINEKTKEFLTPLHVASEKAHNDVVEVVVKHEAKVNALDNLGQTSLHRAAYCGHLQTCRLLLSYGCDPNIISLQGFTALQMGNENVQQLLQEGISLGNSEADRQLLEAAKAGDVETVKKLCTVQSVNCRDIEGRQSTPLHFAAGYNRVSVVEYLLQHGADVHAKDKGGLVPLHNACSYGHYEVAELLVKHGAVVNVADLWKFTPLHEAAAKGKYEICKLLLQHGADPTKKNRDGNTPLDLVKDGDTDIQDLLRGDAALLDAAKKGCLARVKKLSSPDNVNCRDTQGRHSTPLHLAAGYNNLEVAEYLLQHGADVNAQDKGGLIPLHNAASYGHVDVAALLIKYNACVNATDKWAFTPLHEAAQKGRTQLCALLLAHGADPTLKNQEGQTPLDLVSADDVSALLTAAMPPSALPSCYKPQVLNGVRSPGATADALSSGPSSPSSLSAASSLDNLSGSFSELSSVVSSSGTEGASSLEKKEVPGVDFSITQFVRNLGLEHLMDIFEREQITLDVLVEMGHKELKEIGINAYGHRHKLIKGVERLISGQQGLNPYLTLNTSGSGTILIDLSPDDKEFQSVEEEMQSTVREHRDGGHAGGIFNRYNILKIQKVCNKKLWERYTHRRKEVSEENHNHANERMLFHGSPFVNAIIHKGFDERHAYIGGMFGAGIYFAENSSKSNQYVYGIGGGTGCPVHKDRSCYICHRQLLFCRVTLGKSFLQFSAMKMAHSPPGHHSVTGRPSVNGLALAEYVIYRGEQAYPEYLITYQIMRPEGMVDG
The experiment in a line: in vitro Scintillation Proximity Assay (SPA) for TANK-2 inhibitory activity. Type of data set: biochemical. The method, then:
In Vitro Scintillation Proximity Assay (SPA) for Tank-2 Inhibitory Activity
Compounds of the present invention were tested in an in vitro assay based on SPA technology with Ni Flash plates (96 or 384 well).
In principle, the assay relies upon SPA technology for the detection of auto-poly(ADP-ribosylation of TANK-2 protein using [^3H]-nicotinamide adenine dinucleotide ([^3H]-NAD^+) as ADP-ribosyl donor.
A stock solution of [^3H]-NAD^+/NAD was made by adding 64.6 μl of [^3H]-NAD^+ (0.1 mCi/ml, supplier: Perkin Elmer) and 46.7 μl NAD-stock (10.7 mM, stored at −20° C., supplier Roche) to 1888.7 μl assay buffer (60 mM Tris/HCl, pH 7.4; 0.9 mM DTT; 6 mM MgCl2). The TANK-2 enzyme was produced as described in EP1238063.60 μl of assay buffer, together with 1 μl of compound in DMSO, 20 μl of [^3H]-NAD^+/NAD and 20 μl of TANK-2 enzyme (final concentration 6 μg/ml) was added per well into a 96-well Ni-coated flash plate (Perkin Elmer). After incubation of the mixture for 120 min. at room temperature, the reaction was terminated by adding 60 μl of stopsolution (42.6 mg NAD in 6 ml H2O). The plates were covered with a plate sealer and placed in a TopCountNXT™ (Packard) for scintillation counting. Values were expressed as counts per minute (cpm). For each experiment, controls (containing TANK-2 enzyme and DMSO without compound), a blank incubation (containing DMSO but no TANK-2 enzyme or compound) and samples (containing TANK-2 enzyme and compound dissolved in DMSO) were run in parallel. All compounds tested were dissolved and eventually further diluted in DMSO. […] In each test, the blank value was subtracted from both the control and the sample values. The control sample represented maximal TANK-2 enzyme activity. For each sample, the amount of cpm was expressed as a percentage of the mean cpm value of the controls. When appropriate, IC50-values (concentration of the drug, needed to reduce the TANK-2 enzyme activity to 50% of the control) were computed using linear interpolation between the experimental points just above and below the 50% level. Herein the effects of test compounds are expressed as pIC50 (the negative log value of the IC50-value). As reference compounds, 3-aminobenzamide and 4-amino-1,8-naphthalimide were included to validate the SPA assay. Herein the assay was described using 96-well plates. In the assay using 384-well plates the same final concentrations were used and volumes were adapted.
Background: SPA uses beads or plates that emit light when radiolabelled molecules are held near them.

For the next data set, the target named is T2, PARP-1 enzyme (Homo sapiens, UniProt P09874).
T2 construct: made in house
T2 sequence (P09874 whole entry): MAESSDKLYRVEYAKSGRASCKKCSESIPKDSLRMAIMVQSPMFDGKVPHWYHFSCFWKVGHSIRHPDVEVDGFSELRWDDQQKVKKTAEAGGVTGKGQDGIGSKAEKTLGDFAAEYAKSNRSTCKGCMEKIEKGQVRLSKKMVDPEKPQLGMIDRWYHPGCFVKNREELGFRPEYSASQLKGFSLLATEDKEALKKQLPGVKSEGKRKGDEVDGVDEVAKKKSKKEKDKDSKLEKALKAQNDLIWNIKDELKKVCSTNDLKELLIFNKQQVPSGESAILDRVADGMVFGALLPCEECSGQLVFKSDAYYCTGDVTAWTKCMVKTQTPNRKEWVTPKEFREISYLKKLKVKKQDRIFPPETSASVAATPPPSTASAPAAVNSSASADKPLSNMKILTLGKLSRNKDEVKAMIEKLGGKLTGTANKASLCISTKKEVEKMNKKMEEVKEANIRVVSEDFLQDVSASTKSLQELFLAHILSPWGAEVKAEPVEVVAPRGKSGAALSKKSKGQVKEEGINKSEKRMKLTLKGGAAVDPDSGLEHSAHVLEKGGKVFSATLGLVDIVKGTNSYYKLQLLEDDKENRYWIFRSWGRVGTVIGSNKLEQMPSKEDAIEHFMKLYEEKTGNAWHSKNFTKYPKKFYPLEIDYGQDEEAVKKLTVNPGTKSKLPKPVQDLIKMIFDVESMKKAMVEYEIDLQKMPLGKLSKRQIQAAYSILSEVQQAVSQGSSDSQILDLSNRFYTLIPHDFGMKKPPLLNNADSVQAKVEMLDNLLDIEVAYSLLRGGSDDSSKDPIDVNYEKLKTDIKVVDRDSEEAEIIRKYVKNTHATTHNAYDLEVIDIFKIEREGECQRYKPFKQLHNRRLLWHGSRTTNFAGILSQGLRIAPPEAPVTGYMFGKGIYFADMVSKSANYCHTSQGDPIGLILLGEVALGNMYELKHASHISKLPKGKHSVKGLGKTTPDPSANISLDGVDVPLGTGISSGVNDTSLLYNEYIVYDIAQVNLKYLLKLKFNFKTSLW
The experiment in a line: in vitro filtration assay for PARP-1 inhibitory activity. As to conditions: [32P]-NAD, histones, nicked DNA; dose-response 10^-5 M to 10^-8 M; read-out: in vitro filter assay PARP-1 pIC50 (converted). The class given is biochemical. On the procedure:
In Vitro Filtration Assay for PARP-1 Inhibitory Activity
Compounds of the present invention were tested in an in vitro filtration assay assessing PARP-1 activity (triggered in the presence of nicked DNA) by means of its histone poly (ADP-ribosylation activity using [^32P]-NAD as ADP-ribosyl donor. The radioactive ribosylated histones were precipitated by trichloroacetic acid (TCA) in 96-well filterplates and the incorporated [^32P] measured using a scintillation counter
A mixture of histones (stock solution: 5 mg/ml in H2O), NAD^+ (stock solution: 100 mM in H2O), and [^32P]-NAD^+ in incubation buffer (50 mM Tris/HCl, pH 8; 0.2 mM DTT; 4 mM MgCl2) was made. A mixture of the PARP-1 enzyme (5-10 μg/ml) and nicked DNA was also made. The nicked DNA was prepared as described in the in vitro SPA for PARP-1 inhibitory activity. Seventy-five μl of the PARP-1 enzyme/DNA mixture together with 1 μl of compound in DMSO and 25 μl of histones-NAD^+/[^32P]-NAD^+ mixture was added per well of a 96-well filterplate (0.45 μm, supplier Millipore). The final concentrations in the incubation mixture were 2 μg/ml for the histones, 0.1 mM for the NAD^+, […] (0.5 μC) for the [^32P]-NAD^+ and 2 μg/ml for the nicked DNA. Plates were incubated for 15 min. at room temperature and the reaction was terminated by the addition of 10 μl ice cold 100% TCA followed by the addition of 10 μl ice-cold BSA solution (1% in H2O). The protein fraction was allowed to precipitate for 10 min. at 4° C. and plates were vacuum filtered. The plates were subsequently washed with, for each well, 1 ml of 10% ice cold TCA, 1 ml of 5% ice cold TCA and 1 ml of 5% TCA at room temperature. Finally 100 μl of scintillation solution (Microscint 40, Packard) was added to each well and the plates were transferred to a TopCountNXT™ (supplier: Packard) for scintillation counting and values were expressed as counts per minute (cpm). For each experiment, controls (containing PARP-1 enzyme and DMSO without compound), a blank incubation (containing DMSO but no PARP-1 enzyme or compound) and samples (containing PARP-1 enzyme and compound dissolved in DMSO) were run in parallel. All compounds tested were dissolved and eventually further diluted in DMSO. In first instance, compounds were tested at a concentration of 10^−5M. […] In each test, the blank value was subtracted from both the control and the sample values. The control sample represented maximal PARP-1 enzyme activity. For each sample, the amount of cpm was expressed as a percentage of the mean cpm value of the controls. When appropriate, IC50-values (concentration of the drug, needed to reduce the PARP-1 enzyme activity to 50% of the control) were computed using linear interpolation between the experimental points just above and below the 50% level. Herein the effects of test compounds are expressed as pIC50 (the negative log value of the IC50-value). As a reference compound, 4-amino-1,8-naphthalimide was included to validate the filtration assay.

Counter-ions that a name gives are not always drawn. Where only a bound is given, the exact number is not on record here.

For `O=c1[nH]nc(NCCC2CCNCC2)c2ccccc12` [Compound 37], the IC50 at TANK-2 enzyme was over 10000 nM; at PARP-1 enzyme, 61.8 nM.
As to `Nc1ccc2c(=O)[nH]nc(NC3CCNCC3)c2c1` [Compound 14], the values for the IC50 on TANK-2 enzyme and at PARP-1 enzyme were over 10000 nM and 766 nM, respectively.
For the molecule `O=c1[nH]nc(N[C@@H]2C[C@H]3CC[C@@H](C2)N3)c2ccccc12` (as salt: HBr) [Compound 15], the melting point is over 299 °C.
With `O=c1[nH]nc(NCC2CCNCC2)c2ccccc12` [Compound 36], the IC50 against TANK-2 enzyme was 3130 nM; on PARP-1 enzyme, 83.8 nM.
In the case of `O=c1[nH]nc(N[C@@H]2C[C@H]3CC[C@@H](C2)N3CCCC(c2ccc(F)cc2)c2ccc(F)cc2)c2ccccc12` (hydrate or solvate) [Compound 3], the melting point stood at 164.4 °C.
Consider `O=c1[nH]nc(C2CCN(CC(O)COc3ccc(F)c(F)c3)CC2)c2ccccc12` (stereo not drawn) [Compound 26], for which the values for the IC50 on TANK-2 enzyme and at PARP-1 enzyme were over 10000 nM and 17.3 nM, respectively.
Take `CCOC(=O)N1CCC(CCNc2n[nH]c(=O)c3ccccc23)CC1` [Compound 43]: the IC50 was over 10000 nM on TANK-2 enzyme and 56.8 nM on PARP-1 enzyme.
With `FC(F)(F)c1cccc(N2CCN(c3nnc(Cl)c4ccccc34)CC2)c1` [Compound 79], the IC50 at TANK-2 enzyme was over 10000 nM.
In the case of `NCCN1CCC(Nc2n[nH]c(=O)c3ccccc23)CC1` [Compound 33], the IC50 against TANK-2 enzyme is over 10000 nM; at PARP-1 enzyme, 154 nM.
Consider `Cc1cccc(N2CCN(c3nnc(Cl)c4ccccc34)CC2)c1` [Compound 81], for which the IC50 against TANK-2 enzyme was 2790 nM.
As to `COc1ccc(CCN2CCC(c3n[nH]c(=O)c4ccccc34)CC2)cc1` [Compound 64], at PARP-1 enzyme, the IC50 was 29.2 nM.
In the case of `O=c1[nH]nc(NC2CC(Cc3ccccc3)NC(Cc3ccccc3)C2)c2ccccc12` (stereo not drawn) [Compound 38], the figures for the IC50 at TANK-2 enzyme and on PARP-1 enzyme were over 10000 nM and 148 nM, respectively.
`CN(c1cc2ccccc2s1)C1CCN(c2n[nH]c(=O)c3ccccc23)CC1` [Compound 54]: the IC50 on PARP-1 enzyme was 91.8 nM.
As to `O=c1[nH]nc(NC2CCNCC2)c2ccccc12` [Compound 41], the IC50 against TANK-2 enzyme was over 10000 nM; on PARP-1 enzyme it was 37.7 nM.
For `NC1CCN(c2n[nH]c(=O)c3ccccc23)CC1` [Compound 31], in that order: over 10000 nM and 119 nM.
On to `COc1ccccc1N1CCN(c2nnc(Cl)c3ccccc23)CC1` [Compound 84], for which the IC50 against TANK-2 enzyme is over 10000 nM.
Consider `O=c1[nH]nc(C2CCN(C[C@H](O)[C@@H]3CCc4ccccc4O3)CC2)c2ccccc12` (relative stereo) [Compound 28], for which the IC50 on PARP-1 enzyme was 45.4 nM.
For `O=c1[nH]nc(N[C@H]2CCN[C@@H](Cc3ccccc3)C2)c2ccccc12` (single isomer, unassigned) [Compound 35], the IC50 is over 10000 nM on TANK-2 enzyme and 177 nM at PARP-1 enzyme.
For `N#CCN1CCN(c2n[nH]c(=O)c3ccccc23)CC1` [Compound 32], the IC50 was 9250 nM at TANK-2 enzyme and 109 nM at PARP-1 enzyme.
With `Clc1cccc(N2CCN(c3nnc(Cl)c4ccccc34)CC2)c1` [Compound 80], the IC50 at TANK-2 enzyme is over 10000 nM.
Regarding `O=c1[nH]nc(N2CCC(NCc3ccccc3)CC2)c2ccccc12` [Compound 45], the IC50 against TANK-2 enzyme is 5430 nM; on PARP-1 enzyme, 109 nM.
With `O=c1[nH]nc(NC2CCNCC2)c2cc(Cl)ccc12` [Compound 39], the figures for the IC50 at TANK-2 enzyme and at PARP-1 enzyme were over 10000 nM and 213 nM, respectively.
As to `O=c1[nH]nc(C2CCN(c3ccc(Cl)nn3)CC2)c2ccccc12` [Compound 62], at PARP-1 enzyme, the IC50 was 38.6 nM.
On to `O=c1[nH]nc(NC2CCNCC2)c2cccc([N+](=O)[O-])c12` [Compound 40], for which the figures for the IC50 against TANK-2 enzyme and at PARP-1 enzyme were over 10000 nM and 217 nM, respectively.
With `O=c1[nH]nc(NCCNC2CCN(Cc3ccccc3)CC2)c2ccccc12` [Compound 42], the IC50 against TANK-2 enzyme is over 10000 nM; at PARP-1 enzyme, 179 nM.
On to `CC(C)(C)OC(=O)N1CCC(CNc2n[nH]c(=O)c3ccccc23)CC1` [Compound 47], for which the IC50 on TANK-2 enzyme was 6370 nM; on PARP-1 enzyme it was 182 nM.
